Calls of active or inactive are those of the source.
How the values were obtained:
[1] = molecular target: Dipeptidyl peptidase 8 (Homo sapiens, UniProt Q6V1X1); test: Inhibition of N-terminal GST/His-tagged human recombinant DPP-8 (1 to 898 residues) expressed in Sf9 insect cells using Ala-Pro-AMC dipeptide as substrate by fluorescence based assay
[2] = molecular target: Dipeptidyl peptidase 9 (Homo sapiens, UniProt Q86TI2); test: Inhibition of N-terminal GST-tagged human recombinant DPP-9 short form (1 to 863 residues) expressed in Sf9 cells using Ala-Pro-AMC dipeptide as substrate by fluorescence based assay
[3] = Antioxidant activity assessed as H2O2 scavenging activity at 73.43 ug/ml incubated for 10 mins by absorbance based assay; format: functional; settings: dose 73.43 µg/ml
[4] = Acute toxicity in rat assessed as animal survival at 2000 mg/kg, po measured after 30 mins to 4 hrs; format: organism-based; settings: in vivo, time 0.5-4 hrs
[5] = Acute toxicity in rat assessed as diarrhoea at 2000 mg/kg, po measured after 30 mins to 4 hrs; format: organism-based; settings: in vivo, time 0.5-4 hrs
[6] = Acute toxicity in rat assessed as change in sleep patterns at 2000 mg/kg, po measured after 30 mins to 4 hrs; format: organism-based; settings: in vivo, time 0.5-4 hrs
[7] = Acute toxicity in po dosed rat measured after 30 mins to 4 hrs; format: organism-based; settings: in vivo, time 0.5-4 hrs
[8] = Acute toxicity in rat assessed as change in animal skin at 300 to 1000 mg/kg, po measured after 6 hrs; format: organism-based; settings: in vivo, dose 300-1000 mg/kg
[9] = Acute toxicity in rat assessed as change in animal fur at 300 to 1000 mg/kg, po measured after 6 hrs; format: organism-based; settings: in vivo, dose 300-1000 mg/kg
[10] = Acute toxicity in rat assessed as change in salivation at 300 to 1000 mg/kg, po measured after 6 hrs; format: organism-based; settings: in vivo, dose 300-1000 mg/kg
[11] = test system: Rattus norvegicus; test: Antidiabetic activity in IG dosed high fat diet/STZ induced diabetic Wistar rat model assessed as reduction in blood sugar level pretreated with STZ for 21 days followed by compound treatment once daily for 21 days by glucose test strips based assay; format: functional, organism-based; settings: dose 3-30 mg/kg, time 21.0 day
[12] = test system: Rattus norvegicus; test: Antidiabetic activity in high fat diet/STZ induced diabetic Wistar rat model assessed as increase in body weight at 3 to 30 mg/kg, IG pretreated with STZ for 21 days followed by compound treatment once daily for 21 days; format: functional, organism-based; settings: dose 3-30 mg/kg, time 21.0 day
[13] = test system: Rattus norvegicus; test: Antidiabetic activity in high fat diet/STZ induced diabetic Wistar rat model assessed as reduction in triglyceride level at 3 to 30 mg/kg, IG pretreated with STZ for 21 days followed by compound treatment once daily for 21 days by spectrophotometric analysis; format: functional, organism-based; settings: dose 3-30 mg/kg, time 21.0 day
[14] = test system: Rattus norvegicus; test: Antidiabetic activity in high fat diet/STZ induced diabetic Wistar rat model assessed as increase in HDL level at 3 to 30 mg/kg, IG pretreated with STZ for 21 days followed by compound treatment once daily for 21 days by spectrophotometric analysis; format: functional, organism-based; settings: dose 3-30 mg/kg, time 21.0 day
[15] = test system: Rattus norvegicus; test: Antioxidant activity in IG dosed high fat diet/STZ induced diabetic Wistar rat model assessed as reversal of SOD reduction in kidney pretreated with STZ for 21 days followed by compound treatment once daily for 21 days by spectrophotometric analysis; format: functional, organism-based; settings: dose 3-30 mg/kg, time 21.0 day
[16] = test system: Rattus norvegicus; test: Antioxidant activity in IG dosed high fat diet/STZ induced diabetic Wistar rat model assessed as reversal of CAT reduction in kidney pretreated with STZ for 21 days followed by compound treatment once daily for 21 days by spectrophotometric analysis; format: functional, organism-based; settings: dose 3-30 mg/kg, time 21.0 day
[17] = test system: Rattus norvegicus; test: Antioxidant activity in IG dosed high fat diet/STZ induced diabetic Wistar rat model assessed as reversal of GPx reduction in kidney pretreated with STZ for 21 days followed by compound treatment once daily for 21 days by spectrophotometric analysis; format: functional, organism-based; settings: dose 3-30 mg/kg, time 21.0 day
[18] = test system: Rattus norvegicus; test: Antioxidant activity in high fat diet/STZ induced diabetic Wistar rat model assessed as repair of pancreatic epithelial cells with reduced inflammation at 30 mg/kg, IG pretreated with STZ for 21 days followed by compound treatment once daily for 21 days by H and E staining based microscopic analysis; format: functional, organism-based; settings: time 21.0 day
[19] = test system: Rattus norvegicus; test: Antioxidant activity in high fat diet/STZ induced diabetic Wistar rat model assessed as repair of pancreatic epithelial cells with normal islets at 30 mg/kg, IG pretreated with STZ for 21 days followed by compound treatment once daily for 21 days by H and E staining based microscopic analysis; format: functional, organism-based; settings: time 21.0 day
[20] = test system: Rattus norvegicus; test: Antioxidant activity in high fat diet/STZ induced diabetic Wistar rat model assessed as healing of hepatocyte central veins at 3 to 10 mg/kg, IG pretreated with STZ for 21 days followed by compound treatment once daily for 21 days by H and E staining based microscopic analysis; format: functional, organism-based; settings: dose 3-10 mg/kg, time 21.0 day
[21] = test system: Rattus norvegicus; test: Antioxidant activity in high fat diet/STZ induced diabetic Wistar rat model assessed as hepatocyte cytoplasm recovery at 30 mg/kg, IG pretreated with STZ for 21 days followed by compound treatment once daily for 21 days by H and E staining based microscopic analysis; format: functional, organism-based; settings: time 21.0 day
[22] = test system: Rattus norvegicus; test: Antioxidant activity in high fat diet/STZ induced diabetic Wistar rat model assessed as absence of feathery hepatocyte deterioration at 30 mg/kg, IG pretreated with STZ for 21 days followed by compound treatment once daily for 21 days by H and E staining based microscopic analysis; format: functional, organism-based; settings: time 21.0 day
[23] = test system: Rattus norvegicus; test: Antioxidant activity in high fat diet/STZ induced diabetic Wistar rat model assessed as reduction in mesangial cellularity and matrix at 3 mg/kg, IG pretreated with STZ for 21 days followed by compound treatment once daily for 21 days by H and E staining based microscopic analysis; format: functional, organism-based; settings: time 21.0 day
[24] = test system: Rattus norvegicus; test: Antioxidant activity in high fat diet/STZ induced diabetic Wistar rat model assessed as reduction in plasma cells in renal stroma at 3 to 3 to 30 mg/kg, IG pretreated with STZ for 21 days followed by compound treatment once daily for 21 days by H and E staining based microscopic analysis; format: functional, organism-based; settings: dose 3-30 mg/kg, time 21.0 day
[25] = test system: Rattus norvegicus; test: Antioxidant activity in high fat diet/STZ induced diabetic Wistar rat model assessed as appearance of sufficient cloudy swelling of columnar cells in tubules at 10 mg/kg, IG pretreated with STZ for 21 days followed by compound treatment once daily for 21 days by H and E staining based microscopic analysis; format: functional, organism-based; settings: time 21.0 day

Sequence of Dipeptidyl peptidase 8 (Q6V1X1 whole entry, the tested form may be a part): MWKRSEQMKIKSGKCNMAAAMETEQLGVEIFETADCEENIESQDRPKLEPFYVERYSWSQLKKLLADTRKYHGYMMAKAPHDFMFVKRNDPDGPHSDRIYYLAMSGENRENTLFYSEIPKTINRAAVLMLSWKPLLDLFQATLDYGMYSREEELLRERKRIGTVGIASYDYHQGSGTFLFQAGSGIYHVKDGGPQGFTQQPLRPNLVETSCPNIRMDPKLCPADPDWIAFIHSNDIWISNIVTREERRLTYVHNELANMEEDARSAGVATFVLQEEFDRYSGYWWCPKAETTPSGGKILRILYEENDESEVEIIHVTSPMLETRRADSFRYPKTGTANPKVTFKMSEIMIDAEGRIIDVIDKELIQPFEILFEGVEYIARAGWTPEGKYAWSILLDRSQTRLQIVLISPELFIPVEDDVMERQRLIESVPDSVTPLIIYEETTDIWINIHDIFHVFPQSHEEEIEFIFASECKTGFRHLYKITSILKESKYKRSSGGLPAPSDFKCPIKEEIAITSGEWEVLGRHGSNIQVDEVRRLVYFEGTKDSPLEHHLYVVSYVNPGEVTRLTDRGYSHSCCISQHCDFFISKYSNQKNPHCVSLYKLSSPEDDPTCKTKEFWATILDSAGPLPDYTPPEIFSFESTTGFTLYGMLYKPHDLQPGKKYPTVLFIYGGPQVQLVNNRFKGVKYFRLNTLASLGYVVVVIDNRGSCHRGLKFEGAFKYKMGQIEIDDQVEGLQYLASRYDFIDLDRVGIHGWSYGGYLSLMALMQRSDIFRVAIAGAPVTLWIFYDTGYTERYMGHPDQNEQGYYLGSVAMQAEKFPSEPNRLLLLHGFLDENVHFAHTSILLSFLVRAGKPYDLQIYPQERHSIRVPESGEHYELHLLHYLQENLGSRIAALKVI
Sequence of Dipeptidyl peptidase 9 (Q86TI2 whole entry, the tested form may be a part): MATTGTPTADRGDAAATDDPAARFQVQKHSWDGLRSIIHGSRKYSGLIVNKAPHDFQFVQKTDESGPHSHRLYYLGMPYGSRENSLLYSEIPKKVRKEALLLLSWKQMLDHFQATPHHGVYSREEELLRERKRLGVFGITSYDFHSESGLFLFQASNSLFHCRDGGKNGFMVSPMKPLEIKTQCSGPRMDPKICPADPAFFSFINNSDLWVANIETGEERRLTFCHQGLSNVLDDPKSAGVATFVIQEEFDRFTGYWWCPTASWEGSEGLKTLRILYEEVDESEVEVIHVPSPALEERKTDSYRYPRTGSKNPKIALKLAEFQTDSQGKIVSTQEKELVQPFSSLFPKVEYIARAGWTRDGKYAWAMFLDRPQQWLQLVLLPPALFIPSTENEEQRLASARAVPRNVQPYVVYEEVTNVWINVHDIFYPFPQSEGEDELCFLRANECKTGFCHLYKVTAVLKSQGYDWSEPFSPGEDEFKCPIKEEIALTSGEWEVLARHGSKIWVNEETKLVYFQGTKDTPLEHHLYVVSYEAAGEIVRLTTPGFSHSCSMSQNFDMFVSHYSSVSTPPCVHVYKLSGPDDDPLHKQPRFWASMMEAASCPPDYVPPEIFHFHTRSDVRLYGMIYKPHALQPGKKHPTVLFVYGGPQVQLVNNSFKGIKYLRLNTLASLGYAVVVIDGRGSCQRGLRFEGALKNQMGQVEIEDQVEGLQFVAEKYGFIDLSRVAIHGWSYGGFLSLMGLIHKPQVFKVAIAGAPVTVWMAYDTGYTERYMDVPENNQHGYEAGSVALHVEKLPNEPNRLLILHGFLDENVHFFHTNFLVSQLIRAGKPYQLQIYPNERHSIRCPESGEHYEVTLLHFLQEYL

Nc1nc(NC2=NC(c3ccccc3)=CC(c3cccc([N+](=O)[O-])c3)O2)nc(N2CCOCC2)n1 (stereo not given)
2000 mg/kg: LD50 [7]
inactive: Activity [23]
> 400 nM: IC50 [1] | IC50 [2]
active: Activity [3] | Activity [11] Dose-Dependent Effect | Activity [12] | Activity [13] | Activity [14] | Activity [15] Dose-Dependent Effect | Activity [16] Dose-Dependent Effect | Activity [17] Dose-Dependent Effect | Activity [18] | Activity [19] | Activity [20] | Activity [21] | Activity [22] | Activity [24] | Activity [25]
Non-Toxic: Activity [4] | Activity [5] | Activity [6] | Activity [8] | Activity [9] | Activity [10]
